# Measured values published in publication PMC4182434, “Characterization of Niphatenones that Inhibit Androgen Receptor N-Terminal Domain” (PLoS ONE, 2014).
# Legend:
# AR AF-1 = molecular target: T1, AR AF-1 (Homo sapiens, UniProt P10275); assay: Click-chemistry fluorescein labelling, SDS-PAGE; type: binding; details: covalent; […] protein, […] probe, on ice […] min
# T1 construct: recombinant AF-1 region, residues 142-485
# T1 sequence (P10275 143-486): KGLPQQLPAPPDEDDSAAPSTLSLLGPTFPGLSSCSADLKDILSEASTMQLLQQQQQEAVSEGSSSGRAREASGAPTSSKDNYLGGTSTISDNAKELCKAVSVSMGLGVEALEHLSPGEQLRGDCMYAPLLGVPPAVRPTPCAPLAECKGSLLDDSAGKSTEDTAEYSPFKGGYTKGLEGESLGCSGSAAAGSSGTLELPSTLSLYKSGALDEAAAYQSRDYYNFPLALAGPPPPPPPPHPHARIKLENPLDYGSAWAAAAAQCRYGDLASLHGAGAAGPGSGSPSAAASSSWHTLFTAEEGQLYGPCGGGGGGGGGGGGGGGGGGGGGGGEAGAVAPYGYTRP
# [1] = molecular target: T2, full-length AR (endogenous, LNCaP) (Homo sapiens, UniProt P10275, T878A); assay: PB-luciferase reporter in LNCaP cells; type: cell-based; details: R1881-induced, serum-free, […] h; antagonist, AF-1 directed; covalent
# T2 construct: endogenous full-length AR of LNCaP cells
# T2 sequence (P10275 1-920 T878A): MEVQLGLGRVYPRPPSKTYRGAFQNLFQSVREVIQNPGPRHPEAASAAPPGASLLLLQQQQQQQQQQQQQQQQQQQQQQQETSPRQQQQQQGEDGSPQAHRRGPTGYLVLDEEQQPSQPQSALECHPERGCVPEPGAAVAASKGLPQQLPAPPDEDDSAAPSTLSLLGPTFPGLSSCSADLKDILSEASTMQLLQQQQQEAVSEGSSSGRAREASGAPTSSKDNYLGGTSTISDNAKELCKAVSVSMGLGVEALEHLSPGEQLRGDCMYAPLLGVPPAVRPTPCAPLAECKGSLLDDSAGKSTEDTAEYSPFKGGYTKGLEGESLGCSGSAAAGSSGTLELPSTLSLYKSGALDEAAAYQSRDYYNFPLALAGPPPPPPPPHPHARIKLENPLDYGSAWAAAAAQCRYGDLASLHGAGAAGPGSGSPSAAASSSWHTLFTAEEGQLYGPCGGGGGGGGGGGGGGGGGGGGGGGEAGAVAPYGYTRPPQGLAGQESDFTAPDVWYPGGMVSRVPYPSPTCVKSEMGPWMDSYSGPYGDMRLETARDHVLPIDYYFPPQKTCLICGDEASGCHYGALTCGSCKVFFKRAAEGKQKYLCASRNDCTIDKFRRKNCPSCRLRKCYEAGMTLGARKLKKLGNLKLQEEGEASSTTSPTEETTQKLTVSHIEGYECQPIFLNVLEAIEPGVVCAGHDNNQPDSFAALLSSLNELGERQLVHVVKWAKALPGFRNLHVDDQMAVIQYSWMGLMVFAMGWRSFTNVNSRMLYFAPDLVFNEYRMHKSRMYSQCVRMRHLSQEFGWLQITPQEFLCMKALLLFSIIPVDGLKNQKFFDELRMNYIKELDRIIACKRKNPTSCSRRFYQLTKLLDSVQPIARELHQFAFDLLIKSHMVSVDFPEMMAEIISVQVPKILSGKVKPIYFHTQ
IC50 [1],SMILES,"Click-chemistry fluorescein labelling, SDS-PAGE (AR AF-1)"
–,"C#CCOCC(O)COCCC/C=C/C(=O)CCCCCCCCCCCC (stereo not drawn) [compound 44, niphatenone B 44]",resulted in covalent binding to both AR AF-1 and GR AF-1 peptide
5.7 ± 0.6 µM,CCCCCCCCCCCCC(=O)/C=C/CCCOC[C@@H](O)CO [(S)-niphatenone B],–
6.3 ± 0.5 µM,CCCCCCCCCCCCC(=O)/C=C/CCCOC[C@H](O)CO [(R)-niphatenone B],–
